Patent US10144742B2 (Millennium Pharmaceuticals, Inc., priority 2014, dated 2018)
pIC50: −log10 of the molar value. Where two headings read alike, the source gives them in different places.

Tests used:
hNAMPT protein = hNAMPT protein (Homo sapiens (Human), UniProt P43490); assay: NAMPT enzyme assay (TR-FRET/HTRF, BodiPY ligand, anti 6His-Tb); assay type: binding; details: for pIC50: NAMPT IC50 range class, read-out: IC50; for inhibition at 1 µM: read-out: Percent Inhibition
In short: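 TR-FRET binding assay in which His-tagged human NAMPT with anti-6His-Tb is displaced by compound from a BodiPY ligand, incubated 1 h at rt in the dark. Excitation was at 320 nm, with the 520/486 nm emission ratio read. IC50 was fitted from inhibition relative to DMSO controls.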

PC3 cells = assay: PC3 growth inhibition (Cell-titer glo, 72 hours); assay type: cell-based; details: Homo sapiens, PC-3, PC3 cells, 72 hours, Cell-titer glo, read-out: Percent Inhibition (PC3 growth inhibition); for inhibition at 1 µM: compound concentration 1 μM; for inhibition at 1.667 µM: compound concentration 1.667 μM
In short: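 PC3 cells in RPMI1640 seeded overnight at 37 °C, 5% CO2, then exposed to compound diluted in AIM serum-free medium for 72 h. Viability by CellTiter-Glo luminescence vs DMSO controls; single-concentration % remaining viability (1 μM or 1.667 μM), or GI50/LD50 from curves.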

Sequence of hNAMPT protein (P43490 whole entry): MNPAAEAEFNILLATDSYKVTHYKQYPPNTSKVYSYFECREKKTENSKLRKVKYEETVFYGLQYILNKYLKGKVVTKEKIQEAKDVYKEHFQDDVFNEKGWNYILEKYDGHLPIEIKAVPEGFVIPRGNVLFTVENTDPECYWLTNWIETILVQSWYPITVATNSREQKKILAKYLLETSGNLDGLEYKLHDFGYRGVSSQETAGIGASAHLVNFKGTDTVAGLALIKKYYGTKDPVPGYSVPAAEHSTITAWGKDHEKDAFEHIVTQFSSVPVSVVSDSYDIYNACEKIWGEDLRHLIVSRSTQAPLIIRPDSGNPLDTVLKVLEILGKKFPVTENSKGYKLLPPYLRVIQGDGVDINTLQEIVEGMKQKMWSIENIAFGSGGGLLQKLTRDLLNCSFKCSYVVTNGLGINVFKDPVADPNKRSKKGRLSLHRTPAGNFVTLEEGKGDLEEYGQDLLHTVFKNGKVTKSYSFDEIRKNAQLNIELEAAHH

| Compound | pIC50 (hNAMPT protein) | inhibition at 1 µM (hNAMPT protein; compound concentration 1 μM) [%] | inhibition at 1 µM (PC3 cells) [%] | inhibition at 1 µM (hNAMPT protein) [%] | inhibition at 1.667 µM (PC3 cells) [%] |
| --- | --- | --- | --- | --- | --- |
| CC(=O)Nc1ccccc1-c1nc2ccc(C(=O)NCCCn3ccnc3)cc2nc1-c1ccccc1 [Compound I-264, 2-(2-acetamidophenyl)-N-[3-(1H-imidazol-1-yl)propyl]-3-phenylquinoxaline-6-carboxamide] | 5.70 to 6.00 | 41 | -8 | – | – |
| O=C(NCCCn1ccnc1)c1ccc2nc(-c3ccccc3)c(N3CCCCCC3)nc2c1 [Compound I-265, 3-(azepan-1-yl)-N-[3-(1H-imidazol-1-yl)propyl]-2-phenylquinoxaline-6-carboxamide] | 5.00 to 5.70 | 17 | 11 | – | – |
| O=C(c1ccc2nc(-c3ccc(F)cc3)c(-c3ccc(F)cc3)nc2c1)N1CCc2nocc2C1 [Compound I-266, [2,3-bis(4-fluorophenyl)quinoxalin-6-yl](6,7-dihydroisoxazolo[4,3-c]pyridin-5(4H)-yl)methanone] | 5.00 to 5.70 | 15 | 104 | – | – |
| O=C(NCCCn1ccnc1)c1ccc2nc(N3CCC(N4CCOCC4)C3)c(-c3ccccc3)nc2c1 (stereo not drawn) [Compound I-267, N-[3-(1H-imidazol-1-yl)propyl]-2-[3-(morpholin-4-yl)pyrrolidin-1-yl]-3-phenylquinoxaline-6-carboxamide] | 6.30 to 7.00 | 81 | -7 | – | – |
| O=C(NCCCn1ccnc1)c1ccc2nc(N3CCC4(CC3)Cc3ccccc3O4)c(-c3ccccc3)nc2c1 [Compound I-268, N-[3-(1H-imidazol-1-yl)propyl]-3-phenyl-2-(1′H,3H-spiro[1-benzofuran-2,4′-piperidin]-1′-yl)quinoxaline-6-carboxamide] | 5.70 to 6.00 | 63 | -6 | – | – |
| O=C(NCCc1cccnc1)c1ccc2nc(-c3ccc(F)cc3)c(-c3ccc(F)cc3)nc2c1 [Compound I-269, 2,3-bis(4-fluorophenyl)-N-[2-(pyridin-3-yl)ethyl]quinoxaline-6-carboxamide] | 6.30 to 7.00 | 73 | 0 | – | – |
| O=C(NCCn1ccnc1)c1ccc2nc(-c3ccc(F)cc3)c(-c3ccc(F)cc3)nc2c1 [Compound I-270, 2,3-bis(4-fluorophenyl)-N-[2-(1H-imidazol-1-yl)ethyl]quinoxaline-6-carboxamide] | 5.70 to 6.00 | 47 | 111 | – | – |
| O=C(NCCCn1ccnc1)c1ccc2nc(N3CCC(C4CCNCC4)CC3)c(-c3ccccc3)nc2c1 [Compound I-271, 2-(4,4′-Bipiperidin-1-yl)-N-[3-(1H-imidazol-1-yl)propyl]-3-phenylquinoxaline-6-carboxamide] | > 7.00 | – | -2 | 102 | – |
| O=C(NCCCn1ccnc1)c1ccc2nc(N3CCC(N4CCNC4=O)CC3)c(-c3ccccc3)nc2c1 [Compound I-272, N-[3-(1H-imidazol-1-yl)propyl]-2-[4-(2-oxoimidazolidin-1-yl)piperidin-1-yl]-3-phenylquinoxaline-6-carboxamide] | 6.30 to 7.00 | 72 | -6 | – | – |
| O=C(NCCCc1ncc[nH]1)c1ccc2nc(Oc3ccccc3)c(-c3ccc(Cl)cc3)nc2c1 [Compound I-273, 3-(4-Chlorophenyl)-N-[3-(1H-imidazol-2-yl)propyl]-2-phenoxyquinoxaline-6-carboxamide] | > 7.00 | 88 | – | – | 2 |
| O=C(NCCCn1ccnc1)c1ccc2nc(NC3CCC3)c(-c3ccccc3)nc2c1 [Compound I-274, 2-(cyclobutylamino)-N-[3-(1H-imidazol-1-yl)propyl]-3-phenylquinoxaline-6-carboxamide] | 5.00 to 5.70 | 25 | -5 | – | – |
| O=C(NCCCn1ccnc1)c1ccc2nc(N3CCC4(CC3)OCCO4)c(-c3ccccc3)nc2c1 [Compound I-275] | > 7.00 | 99 | 0 | – | – |
| Cn1cnc(CCNC(=O)c2ccc3nc(-c4ccc(F)cc4)c(-c4ccc(F)cc4)nc3c2)c1 [Compound I-276, 2,3-bis(4-fluorophenyl)-N-[2-(1-methyl-1H-imidazol-4-yl)ethyl]quinoxaline-6-carboxamide] | 5.70 to 6.00 | 38 | 90 | – | – |
| O=C(NCCCc1ncc[nH]1)c1ccc2nc(N3CCC4(CC3)COC4)c(-c3ccc(F)cc3)nc2c1 [Compound I-277, 3-(4-Fluorophenyl)-N-[3-(1H-imidazol-2-yl)propyl]-2-(2-oxa-7-azaspiro[3.5]non-7-yl)quinoxaline-6-carboxamide] | > 7.00 | – | – | 99 | 2 |
| CCN(CC)c1nc2cc(C(=O)NCCCn3ccnc3)ccc2nc1-c1ccccc1 [Compound I-278, 3-(diethylamino)-N-[3-(1H-imidazol-1-yl)propyl]-2-phenylquinoxaline-6-carboxamide] | 5.00 to 5.70 | 15 | 98 | – | – |
| CN(CCn1ccnc1)C(=O)c1ccc2nc(-c3ccc(F)cc3)c(-c3ccc(F)cc3)nc2c1 [Compound I-279, 2,3-bis(4-fluorophenyl)-N-[2-(1H-imidazol-1-yl)ethyl]-N-methylquinoxaline-6-carboxamide] | 5.00 to 5.70 | 13 | 89 | – | – |
| O=C(NCCCn1ccnc1)c1ccc2nc(N3CCC(n4c(=O)[nH]c5ccccc54)CC3)c(-c3ccccc3)nc2c1 [Compound I-280, N-[3-(1H-imidazol-1-yl)propyl]-2-[4-(2-oxo-2,3-dihydro-1H-benzimidazol-1-yl)piperidin-1-yl]-3-phenylquinoxaline-6-carboxamide] | 6.30 to 7.00 | 83 | -6 | – | – |
| O=C(NCCCn1ccnc1)c1ccc2nc(-c3ccccc3)c(-c3ccccc3Cl)nc2c1 [Compound I-281, 3-(2-chlorophenyl)-N-[3-(1H-imidazol-1-yl)propyl]-2-phenylquinoxaline-6-carboxamide] | 5.70 to 6.00 | 37 | 6 | – | – |
| O=C(NCc1cn2cccnc2n1)c1ccc2nc(N3CCC(O)CC3)c(-c3ccc(F)cc3)nc2c1 [Compound I-282, 3-(4-Fluorophenyl)-2-(4-hydroxypiperidin-1-yl)-N-(imidazo[1,2-a]pyrimidin-2-ylmethyl)quinoxaline-6-carboxamide] | > 7.00 | 91 | – | – | 96 |
| O=C(NCCCn1ccnc1)c1ccc2nc(-c3ccccc3)c(N3CCn4ccnc4C3)nc2c1 [Compound I-283, 3-(5,6-dihydroimidazo[1,2-a]pyrazin-7(8H)-yl)-N-[3-(1H-imidazol-1-yl)propyl]-2-phenylquinoxaline-6-carboxamide] | 5.00 to 5.70 | 12 | 100 | – | – |
| CC(C)Oc1c2c(nn1C)CCN(C(=O)c1ccc3nc(-c4ccc(F)cc4)c(-c4ccc(F)cc4)nc3c1)C2 [Compound I-284, [2,3-bis(4-fluorophenyl)quinoxalin-6-yl](3-isopropoxy-2-methyl-2,4,6,7-tetrahydro-5H-pyrazolo[4,3-c]pyridin-5-yl)methanone] | 5.00 to 5.70 | 14 | 98 | – | – |
| O=C(c1ccc2nc(-c3ccc(F)cc3)c(-c3ccc(F)cc3)nc2c1)N1CCc2[nH]nc(O)c2C1 [Compound I-285, [2,3-bis(4-fluorophenyl)quinoxalin-6-yl](3-hydroxy-1,4,6,7-tetrahydro-5H-pyrazolo[4,3-c]pyridin-5-yl)methanone] | 5.00 to 5.70 | 7 | 97 | – | – |
| NCc1ccc(-c2nc3cc(C(=O)NCCc4cccnc4)ccc3nc2-c2ccccc2)cc1 [Compound I-286, 3-[4-(Aminomethyl)phenyl]-2-phenyl-N-[2-(pyridin-3-yl)ethyl]quinoxaline-6-carboxamide] | 5.00 to 5.70 | – | 4 | 13 | – |
| O=C(NCCCc1ncc[nH]1)c1ccc2nc(N3CCS(=O)(=O)CC3)c(-c3ccc(F)cc3)nc2c1 [Compound I-287, 2-(1,1-dioxidothiomorpholin-4-yl)-3-(4-fluorophenyl)-N-[3-(1H-imidazol-2-yl)propyl]quinoxaline-6-carboxamide] | > 7.00 | 98 | – | – | 2 |
| O=C(NCCCc1ncc[nH]1)c1ccc2nc(N3CC4(CCOCC4)C3)c(-c3ccc(F)cc3)nc2c1 [Compound I-288, 3-(4-fluorophenyl)-N-[3-(1H-imidazol-2-yl)propyl]-2-(7-oxa-2-azaspiro[3.5]non-2-yl)quinoxaline-6-carboxamide] | > 7.00 | > 99 | – | – | 2 |
| O=C(NCCCn1ccnc1)c1ccc2nc(N3CCS(=O)(=O)CC3)c(-c3ccccc3)nc2c1 [Compound I-289, 2-(1,1-dioxidothiomorpholin-4-yl)-N-[3-(1H-imidazol-1-yl)propyl]-3-phenylquinoxaline-6-carboxamide] | 5.70 to 6.00 | 45 | -7 | – | – |
| CS(=O)(=O)Nc1cccc(-c2nc3ccc(C(=O)NCCCn4ccnc4)cc3nc2-c2ccccc2)c1 [Compound I-290, N-[3-(1H-imidazol-1-yl)propyl]-2-{3-[(methylsulfonyl)amino]phenyl}-3-phenylquinoxaline-6-carboxamide] | 6.30 to 7.00 | 81 | -8 | – | – |
